Experimental findings from ChEMBL document CHEMBL1201862, “PubChem BioAssay data set” (2004) are described below.

Among the test systems are SF-268; SN12C; Malme-3M; 786-0; SF-295; CAKI-1; HL-60; A498; U-251; NCI-H226; HOP-92; SW-620; UO-31; HCC 2998; OVCAR-5; TK-10; NCI-H460; SNB-75; OVCAR-8; SK-MEL-28.
Common to all, as to assay: growth of human tumour cells (NCI), 48 h

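The compound was tested at five concentrations on cells cultured in 96-well plates, with a 48-hour exposure period. At the GI50, growth is halved.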 Calls of active or inactive are those of the source. No stated cut-off is given here; in the data, active = GI50 up to about 1.1 µM and inactive = higher. Bounds are passed on as bounds.

Turning to `CC1=CC2=C(C)C3(CC3)[C@@](C)(O)C(=O)C2=C1`, the GI50 was 0.133 µM (active) in the assay with SF-268; 0.231 µM (active) with SN12C; 0.0933 µM (active) in the assay with Malme-3M; 0.217 µM (active) in the assay with 786-0; 0.223 µM (active) in the assay on SF-295; 0.269 µM (active) with CAKI-1. The GI50 is 0.135 µM (active) with HL-60; 0.241 µM (active) with A498; 0.209 µM (active) in the assay with U-251; 0.231 µM (active) with NCI-H226; 0.307 µM (active) in the assay with HOP-92; > 1 µM (active) with SW-620. Besides, the GI50 in the assay on UO-31 was 0.19 µM (active); in the assay on HCC 2998, 0.178 µM (active); in the assay with OVCAR-5, 0.239 µM (active); in the assay on TK-10 it was 0.329 µM (active); in the assay with NCI-H460, 0.0783 µM (active); with SNB-75, 0.19 µM (active). The GI50 in the assay on OVCAR-8 is 0.211 µM (active); in the assay with SK-MEL-28, 0.194 µM (active).

Consider `CC(=O)OCC1OC(n2cc(F)c(=O)[nH]c2=O)C(OC(C)=O)C1OC(C)=O` (stereo not given), for which the GI50 with SF-268 is 12.5 µM (inactive); in the assay on SN12C it was 32.5 µM (inactive); in the assay on Malme-3M it was 5.05 µM (inactive); in the assay with 786-0 it was 12.2 µM (inactive); with SF-295 it was 52.7 µM (inactive); with CAKI-1, 25.9 µM (inactive). Also, the GI50 in the assay with HL-60 is 27.9 µM (inactive); in the assay on A498, 61.2 µM (inactive); with U-251, 13.4 µM (inactive); in the assay on NCI-H226 it was 59.8 µM (inactive); in the assay with HOP-92, 16.7 µM (inactive); with SW-620, 9.86 µM (inactive). For the same compound, the GI50 with UO-31 was 11.8 µM (inactive); in the assay with HCC 2998, 7.1 µM (inactive); in the assay with OVCAR-5 it was 33.8 µM (inactive); in the assay with TK-10, > 100 µM (inactive); in the assay with NCI-H460 it was 5.37 µM (inactive); in the assay on SNB-75, 23.6 µM (inactive). For the same compound, the GI50 in the assay with OVCAR-8 is 26 µM (inactive); with SK-MEL-28, 25.2 µM (inactive).

Consider `Cn1c2c(c3ccccc31)CCN(CCCCN1CCN(c3ccccc3)CC1)C2=O`, for which the GI50 in the assay with SF-268 was 56 µM (inactive); in the assay on SN12C, > 65.6 µM (inactive); with Malme-3M, 8.04 µM (inactive); in the assay on 786-0, 29.6 µM (inactive); with SF-295 it was > 88.3 µM (inactive); in the assay with CAKI-1 it was 56.4 µM (inactive). Moreover, the GI50 was 7.78 µM (inactive) in the assay on HL-60; 45 µM (inactive) with A498; 34.8 µM (inactive) in the assay on U-251; > 41.8 µM (inactive) in the assay with NCI-H226; > 29.1 µM (inactive) with HOP-92; 22.8 µM (inactive) with SW-620. For the same compound, the GI50 is 17.3 µM (inactive) in the assay on UO-31; 5.62 µM (inactive) in the assay with HCC 2998; 19.6 µM (inactive) in the assay with OVCAR-5; 45 µM (inactive) in the assay with TK-10; 28.6 µM (inactive) in the assay on NCI-H460; 44.8 µM (inactive) in the assay on SNB-75. The values for the GI50 in the assay on OVCAR-8 and in the assay with SK-MEL-28 were 47.6 µM (inactive) and 15.8 µM (inactive), respectively.

With `CCc1nc2cc3cccnc3c(Cl)c2[nH]c1=O`, the GI50 in the assay on SF-268 was > 100 µM (inactive); in the assay with SN12C it was > 100 µM (inactive); in the assay on Malme-3M, > 100 µM (inactive); in the assay on 786-0, 79.8 µM (inactive); in the assay with SF-295, > 100 µM (inactive); in the assay with CAKI-1, 75.7 µM (inactive). Besides, the GI50 was > 100 µM (inactive) in the assay with HL-60; > 100 µM (inactive) in the assay on A498; 61.5 µM (inactive) with U-251; > 100 µM (inactive) in the assay on NCI-H226; 49.2 µM (inactive) with HOP-92; > 100 µM (inactive) in the assay on SW-620. The GI50 in the assay with UO-31 was > 100 µM (inactive); in the assay with HCC 2998, > 100 µM (inactive); in the assay on OVCAR-5, > 100 µM (inactive); with TK-10, 89.5 µM (inactive); in the assay with NCI-H460 it was > 100 µM (inactive); in the assay with SNB-75, 17.8 µM (inactive). Besides, the GI50 in the assay on OVCAR-8 and with SK-MEL-28 was > 100 µM (inactive) throughout.

On to `O=C1c2ccccc2CC12Cc1cc3c(cc1C2)CCC3`, for which the GI50 was > 100 µM (inactive) in the assay with SF-268; 59.7 µM (inactive) in the assay with SN12C; 22.7 µM (inactive) with Malme-3M; 94.4 µM (inactive) in the assay on 786-0; > 100 µM (inactive) in the assay on SF-295; > 100 µM (inactive) in the assay with CAKI-1. Besides, the GI50 with HL-60 was 24 µM (inactive); with A498 it was 84.1 µM (inactive); with U-251, 43.1 µM (inactive); in the assay with NCI-H226, 15.9 µM (inactive); in the assay with HOP-92, 37.6 µM (inactive); in the assay with SW-620 it was 78.2 µM (inactive). Also, the GI50 with UO-31 is 69.3 µM (inactive); in the assay with HCC 2998, 57.5 µM (inactive); in the assay on OVCAR-5 it was > 100 µM (inactive); with TK-10, > 100 µM (inactive); in the assay with NCI-H460 it was 39.9 µM (inactive); in the assay on SNB-75, 33.3 µM (inactive). The GI50 is > 100 µM (inactive) in the assay with OVCAR-8 and 45.8 µM (inactive) in the assay on SK-MEL-28.

Take `O=C(O)COc1ccc(C(=O)/C(SS/C(C(=O)c2ccc(OCC(=O)O)c(Cl)c2Cl)=C2\C=C(c3ccccc3Cl)SS2)=C2/C=C(c3ccccc3Cl)SS2)c(Cl)c1Cl`: the GI50 is 22 µM (inactive) with SF-268; 30.6 µM (inactive) with SN12C; 53.8 µM (inactive) in the assay with Malme-3M; 19.8 µM (inactive) in the assay on 786-0; 37.5 µM (inactive) in the assay on SF-295; 39.4 µM (inactive) in the assay with CAKI-1. The GI50 with HL-60 was 2.59 µM (inactive); in the assay on A498, 34.7 µM (inactive); with U-251 it was 6.61 µM (inactive); with NCI-H226, 17.7 µM (inactive); in the assay with HOP-92 it was 7.89 µM (inactive); in the assay with SW-620 it was 25.5 µM (inactive). The GI50 was 24.3 µM (inactive) in the assay with UO-31; 57.1 µM (inactive) with HCC 2998; > 70.3 µM (inactive) in the assay with OVCAR-5; 33.3 µM (inactive) in the assay on TK-10; 21.8 µM (inactive) in the assay on NCI-H460; 35.1 µM (inactive) in the assay with SNB-75. Also, the figures for the GI50 in the assay with OVCAR-8 and in the assay on SK-MEL-28 were 23.7 µM (inactive) and 20.6 µM (inactive), respectively.

Take `O=C(NO)C(=O)Nc1ccc(Cl)cc1[N+](=O)[O-]`: the GI50 with SF-268 is > 100 µM (inactive); in the assay with SN12C, > 100 µM (inactive); in the assay on Malme-3M, > 100 µM (inactive); in the assay with 786-0, > 100 µM (inactive); in the assay on SF-295, > 100 µM (inactive); with CAKI-1 it was 66.5 µM (inactive). In addition, the GI50 in the assay with HL-60 is > 100 µM (inactive); in the assay with A498, > 100 µM (inactive); in the assay with U-251, > 100 µM (inactive); in the assay with NCI-H226, > 100 µM (inactive); in the assay with HOP-92, 83.9 µM (inactive); in the assay with SW-620 it was > 100 µM (inactive). Moreover, the GI50 in the assay with UO-31, in the assay on HCC 2998, in the assay with OVCAR-5, in the assay on TK-10, in the assay on NCI-H460 and with SNB-75 was > 100 µM (inactive) throughout. Moreover, the GI50 with OVCAR-8 and with SK-MEL-28 was > 100 µM (inactive) throughout.

As for `CCOc1ccc(NC(=O)C(=O)CC(=O)c2c[n+]([O-])c3cc(C)c(C)cc3[n+]2[O-])cc1`, the GI50 in the assay with SF-268, with SN12C, in the assay with Malme-3M, in the assay on 786-0, in the assay on SF-295 and in the assay with CAKI-1 was > 100 µM (inactive) each time. The GI50 in the assay on HL-60, with A498, in the assay on U-251, in the assay on NCI-H226, in the assay with HOP-92 and in the assay with SW-620 was > 100 µM (inactive) throughout. In addition, the GI50 in the assay with UO-31, in the assay on HCC 2998, in the assay with OVCAR-5, with TK-10, in the assay with NCI-H460 and in the assay on SNB-75 was > 100 µM (inactive) in each case. For the same compound, the GI50 with OVCAR-8 and in the assay on SK-MEL-28 was > 100 µM (inactive) in each case.

With `CC(=O)/C=C/C1=C(C)CCCC1(C)CC(C)C` (stereo not given), the GI50 is 39.7 µM (inactive) in the assay on SF-268; 18.8 µM (inactive) with SN12C; 30.6 µM (inactive) with Malme-3M; 19 µM (inactive) in the assay with 786-0; 34.2 µM (inactive) in the assay on SF-295; 42.8 µM (inactive) with CAKI-1. Further, the GI50 in the assay on HL-60 was 11.7 µM (inactive); with A498, 24.2 µM (inactive); in the assay with U-251, 26.7 µM (inactive); in the assay with NCI-H226 it was 33.5 µM (inactive); in the assay with HOP-92, 6.73 µM (inactive); in the assay with SW-620, 18.6 µM (inactive). For the same compound, the GI50 was 36.9 µM (inactive) in the assay on UO-31; 17.6 µM (inactive) in the assay with HCC 2998; 61.5 µM (inactive) with OVCAR-5; > 100 µM (inactive) with TK-10; 29.1 µM (inactive) in the assay with NCI-H460; 21.6 µM (inactive) with SNB-75. Also, the GI50 was 31.3 µM (inactive) in the assay on OVCAR-8 and 40.8 µM (inactive) in the assay on SK-MEL-28.

For the compound `COc1ccc2ccccc2c1/C=C/C(=O)c1ccccc1`, the GI50 in the assay on SF-268 is 2.7 µM (inactive); in the assay with SN12C, 2.88 µM (inactive); in the assay on Malme-3M, 9.33 µM (inactive); in the assay on 786-0, 2.87 µM (inactive); in the assay on SF-295 it was 3.75 µM (inactive); in the assay on CAKI-1, 4.8 µM (inactive). Also, the GI50 in the assay on HL-60 is 1.7 µM (inactive); in the assay on A498 it was 3.56 µM (inactive); with U-251, 1.95 µM (inactive); in the assay on NCI-H226 it was 3.1 µM (inactive); with HOP-92 it was 1.69 µM (inactive); in the assay on SW-620, 2.54 µM (inactive). Besides, the GI50 in the assay on UO-31 was 2.82 µM (inactive); with HCC 2998, 1.66 µM (inactive); in the assay on OVCAR-5 it was 7.57 µM (inactive); in the assay on TK-10 it was 2.59 µM (inactive); with NCI-H460, 1.79 µM (inactive); in the assay on SNB-75, 1.08 µM (active). The GI50 with OVCAR-8 is 2.33 µM (inactive); in the assay with SK-MEL-28 it was 5.96 µM (inactive).
